Results reported in patent US20090117176A1, “Anticancer Treatments” (Pharma Mar, S.A. Sociedad Unipersonal, priority 2004, published 2009).
Marks after values point to notes of the source that are not given here.

Legend:
[1] = Phase I trial combining PLD and trabectedin: MTD, safety, drug-related adverse events; format: in vivo, human
Experimental: (§1) A phase I trial combining PLD and trabectedin was performed. The objective of this study was to determine the maximum tolerated dose (MTD) of trabectidin in combination with PLD 30 mg/m^2 administered every 21 clays. Additional objectives were to evaluate the safety profile of this combination of drugs and to evaluate the pharmacokinetics of trabectidin and PDL when given in combination. The maximum tolerated dose (MTD) relates to the highest dose at which less than one third of the subjects in a dose-level cohort experienced dose-limiting toxicity (DLT).
(§2) We designed a dose finding trial with a fixed PLD dose of 30 mg/m^2 administered intravenously over one hour, followed immediately by one of six trabectedin doses (0.4, 0.6, 0.75, 0.9, 1.1, and 1.3 mg/m^2) administered intravenously over 3 hours. This treatment was repeated every 21 days.
Entry-criteria included normal liver function tests, limited prior, doxorubicin-exposure (dose less than 250 mg/m^2), normal cardiac function and Eastern Cooperative Oncology Group (ECOG) Performance Status (PS) score of 0 or 1.
Worst on-treatment drug related grade 3 and 4 toxicities have been minimal, limited to neutropenia and transaminases elevation. Tables 5a and 5b show the frequently reported drug-related Grade ¾ adverse events in least 5% of subjects. The adverse events reported at any time from first treatment dose up to 30 days after the last treatment dose are included. In order to define the toxicity grade, NCI common criteria are used.
In addition, Tables 6a and 6b show the drug-related serious adverse events reported.
Out of 18 subjects that discontinued treatment only one subject terminated treatment due to drug related adverse event (Tables 7a and 7b).

[2] = test system: human tumour xenografts; conditions: xenografts including melanoma and ovarian and breast carcinoma; cited from earlier work
[3] = Phase I trial combining PLD and trabectedin: pharmacokinetics of trabectedin; format: in vivo, human; conditions: for AUC∞ / Cl / Cmax / T1/2: mean; for Impact of concomitant PLD on the pharmacokinetics of trabectedin: preliminary analysis, versus historical control data of trabectedin alone
Experimental: as §1, §2
Based on preliminary pharmacokinetic analysis, the values of trabectedin CL (systematic clearance after i.v. dose), t½ (half life) and Vss (apparent volume of distribution at steady state) are within the range observed when trabectedin is given alone (historical control data) (FIG. 1, Table 9),

[4] = patients, infusion over 24-72 hr; cited from earlier work
[5] = increase in plasma liver enzymes, cholangitis; cited from earlier work
[6] = test system: cancer; assay: Phase I trial combining PLD and trabectedin: best overall response; format: in vivo, human; conditions: for Best Overall Response: SD (patients, tumour type): stable disease > 3 months
Experimental: as §1, §2
Thirty patients, 14 with sarcomas, 2 with ovarian cancer, 2 with pancreatic cancer, 2 with head and neck carcinoma, 1 with bladder cancer, 1 with breast cancer, 1 with gastric cancer, 1 with NSCLC, 1 with SCLC and 5 more with other types of cancers have been treated (Table 1).
Fourteen (14) additional patients (five with sarcoma, and one each carcinoid tumor, pancreatic, bladder, head and neck, thyroid, breast, gastric, SCLC and ovarian cancer) have had stable disease for > 3 months (Table 8a and 8b).

[7] = test system: sarcoma and breast and ovarian carcinoma; conditions: phase I, ET-743 alone; cited from earlier work
[8] = Phase I dose escalation study of Doxorubicin (60 mg/m^2) in combination with ET-743; format: in vivo, human; conditions: in combination with Doxorubicin 60 mg/m^2, ET-743 over 3 hours
Experimental: The following figures indicate that the use of PLD in combination with ET-743, allows an escalated dose of ET-743 to be tolerated, in comparison to when Doxorubicin is used. A phase I dose escalation study of Doxorubicin (60 mg/m^2) in combination with ET-743, administered over 3 hours, could only support a ET-743 dose of 0.7 mg/m^2. In a Phase I dose escalation study of 30 mg/m^2 PLD in combination with ET-743 administered over 3 hours, ET-743 could be escalated to 1.1 mg/m^2.

[9] = high-dose dexamethasone pretreatment, female rat; cited from earlier work
[10] = ET743 0.4 mg/m^2 + PLD 30 mg/m^2, N = 3
[11] = ET743 0.6 mg/m^2 + PLD 30 mg/m^2, N = 3
[12] = ET743 0.75 mg/m^2 + PLD 30 mg/m^2, N = 3
[13] = ET743 0.9 mg/m^2 + PLD 30 mg/m^2, N = 3
[14] = ET743 1.1 mg/m^2 + PLD 30 mg/m^2, N = 12
[15] = ET743 1.3 mg/m^2 + PLD 30 mg/m^2, N = 6
[16] = Total, all ET743 dose levels + PLD 30 mg/m^2, N = 30
[17] = ET-743 0.9 mg/m^2 3 hours infusion after PLD 30 mg/m^2 1 hour infusion, N 3
[18] = ET-743 1.1 mg/m^2 3 hours infusion after PLD 30 mg/m^2 1 hour infusion, N 3
[19] = ET-743 1.3 mg/m^2 3 hours infusion after PLD 30 mg/m^2 1 hour infusion, N 2

Compound: COc1cc2c(cc1O)CCN[C@]21CS[C@@H]2c3c(OC(C)=O)c(C)c4c(c3[C@H](COC1=O)N1[C@@H]2[C@H]2c3c(cc(C)c(OC)c3O)C[C@@H]([C@@H]1O)N2C)OCO4 [ET743, Ecteinascidin 743]
- Drug related serious adverse events, subjects: Nausea/Vomiting [1, 10]: 0
- Grade 3/4 drug-related AE, subjects: Allergic Reaction [1, 10]: 0
- Grade 3/4 drug-related AE, subjects: Liver and Biliary System [1, 10]: 0
- Grade 3/4 drug-related AE, subjects: Nausea [1, 10]: 0
- Grade 3/4 drug-related AE, subjects: Other [1, 10]: 0
- Grade 3/4 drug-related AE, subjects: Palmar-Plantar Erythrodysesthesia [1, 10]: 0
- Grade 3/4 drug-related AE, subjects: SGOT Increased [1, 10]: 0
- Grade 3/4 drug-related AE, subjects: SGPT Increased [1, 10]: 0
- Total no. subjects with Grade 3/4 drug-related AE [1, 10]: 0
- Total no. subjects with SAE (drug related serious adverse events) [1, 10]: 0
- Treatment termination, subjects: Death [1, 10]: 0
- Treatment termination, subjects: Drug-Related AE (hand-foot syndrome) [1, 10]: 0
- Drug related serious adverse events, subjects: Nausea/Vomiting [1, 11]: 0
- Grade 3/4 drug-related AE, subjects: Allergic Reaction [1, 11]: 0
- Grade 3/4 drug-related AE, subjects: Liver and Biliary System [1, 11]: 0
- Grade 3/4 drug-related AE, subjects: Nausea [1, 11]: 1
- Grade 3/4 drug-related AE, subjects: Other [1, 11]: 1
- Grade 3/4 drug-related AE, subjects: Palmar-Plantar Erythrodysesthesia [1, 11]: 0
- Grade 3/4 drug-related AE, subjects: SGOT Increased [1, 11]: 0
- Grade 3/4 drug-related AE, subjects: SGPT Increased [1, 11]: 0
- Total no. subjects with Grade 3/4 drug-related AE [1, 11]: 1
- Total no. subjects with SAE (drug related serious adverse events) [1, 11]: 0
- Treatment termination, subjects: Death [1, 11]: 0
- Treatment termination, subjects: Drug-Related AE (hand-foot syndrome) [1, 11]: 0
- Drug related serious adverse events, subjects: Nausea/Vomiting [1, 12]: 0
- Grade 3/4 drug-related AE, subjects: Allergic Reaction [1, 12]: 0
- Grade 3/4 drug-related AE, subjects: Liver and Biliary System [1, 12]: 0
- Grade 3/4 drug-related AE, subjects: Nausea [1, 12]: 0
- Grade 3/4 drug-related AE, subjects: Other [1, 12]: 0
- Grade 3/4 drug-related AE, subjects: Palmar-Plantar Erythrodysesthesia [1, 12]: 0
- Grade 3/4 drug-related AE, subjects: SGOT Increased [1, 12]: 0
- Grade 3/4 drug-related AE, subjects: SGPT Increased [1, 12]: 0
- Total no. subjects with Grade 3/4 drug-related AE [1, 12]: 0
- Total no. subjects with SAE (drug related serious adverse events) [1, 12]: 0
- Treatment termination, subjects: Death [1, 12]: 0
- Treatment termination, subjects: Drug-Related AE (hand-foot syndrome) [1, 12]: 0
- Drug related serious adverse events, subjects: Nausea/Vomiting [1, 13]: 0
- Grade 3/4 drug-related AE, subjects: Allergic Reaction [1, 13]: 0
- Grade 3/4 drug-related AE, subjects: Liver and Biliary System [1, 13]: 0
- Grade 3/4 drug-related AE, subjects: Nausea [1, 13]: 0
- Grade 3/4 drug-related AE, subjects: Other [1, 13]: 0
- Grade 3/4 drug-related AE, subjects: Palmar-Plantar Erythrodysesthesia [1, 13]: 0
- Grade 3/4 drug-related AE, subjects: SGOT Increased [1, 13]: 0
- Grade 3/4 drug-related AE, subjects: SGPT Increased [1, 13]: 0
- Total no. subjects with Grade 3/4 drug-related AE [1, 13]: 0
- Total no. subjects with SAE (drug related serious adverse events) [1, 13]: 0
- Treatment termination, subjects: Death [1, 13]: 0
- Treatment termination, subjects: Drug-Related AE (hand-foot syndrome) [1, 13]: 0
- Drug related serious adverse events, subjects: Nausea/Vomiting [1, 14]: 1
- Grade 3/4 drug-related AE, subjects: Allergic Reaction [1, 14]: 2
- Grade 3/4 drug-related AE, subjects: Liver and Biliary System [1, 14]: 6
- Grade 3/4 drug-related AE, subjects: Nausea [1, 14]: 1
- Grade 3/4 drug-related AE, subjects: Other [1, 14]: 4
- Grade 3/4 drug-related AE, subjects: Palmar-Plantar Erythrodysesthesia [1, 14]: 2
- Grade 3/4 drug-related AE, subjects: SGOT Increased [1, 14]: 1
- Grade 3/4 drug-related AE, subjects: SGPT Increased [1, 14]: 6
- Total no. subjects with Grade 3/4 drug-related AE [1, 14]: 10
- Total no. subjects with SAE (drug related serious adverse events) [1, 14]: 1
- Treatment termination, subjects: Death [1, 14]: 0
- Treatment termination, subjects: Drug-Related AE (hand-foot syndrome) [1, 14]: 1
- Drug related serious adverse events, subjects: Nausea/Vomiting [1, 15]: 0
- Grade 3/4 drug-related AE, subjects: Allergic Reaction [1, 15]: 0
- Grade 3/4 drug-related AE, subjects: Liver and Biliary System [1, 15]: 3
- Grade 3/4 drug-related AE, subjects: Nausea [1, 15]: 0
- Grade 3/4 drug-related AE, subjects: Other [1, 15]: 2
- Grade 3/4 drug-related AE, subjects: Palmar-Plantar Erythrodysesthesia [1, 15]: 2
- Grade 3/4 drug-related AE, subjects: SGOT Increased [1, 15]: 2*
- Grade 3/4 drug-related AE, subjects: SGPT Increased [1, 15]: 3*
- Total no. subjects with Grade 3/4 drug-related AE [1, 15]: 6
- Total no. subjects with SAE (drug related serious adverse events) [1, 15]: 0
- Treatment termination, subjects: Death [1, 15]: 1
- Treatment termination, subjects: Drug-Related AE (hand-foot syndrome) [1, 15]: 0
- Grade 3/4 drug-related AE, subjects: Allergic Reaction [1, 16]: 2
- Grade 3/4 drug-related AE, subjects: Liver and Biliary System [1, 16]: 9
- Grade 3/4 drug-related AE, subjects: Nausea [1, 16]: 2
- Grade 3/4 drug-related AE, subjects: Other [1, 16]: 7
- Grade 3/4 drug-related AE, subjects: Palmar-Plantar Erythrodysesthesia [1, 16]: 4
- Grade 3/4 drug-related AE, subjects: SGOT Increased [1, 16]: 3
- Grade 3/4 drug-related AE, subjects: SGPT Increased [1, 16]: 9
- Total no. subjects with Grade 3/4 drug-related AE [1, 16]: 17
- Total no. subjects with SAE (drug related serious adverse events) [1, 16]: 1
- Treatment termination, subjects: Death [1, 16]: 1
- Treatment termination, subjects: Drug-Related AE (hand-foot syndrome) [1, 16]: 1
- Tolerability of the combination ([1]; both drugs at full (or near full) therapeutic doses for prolonged periods): well tolerated
- ET-743 dose reached in dose escalation ([1]; in combination with 30 mg/m^2 PLD, ET-743 over 3 hours): 1.1 mg/m^2
- maximum tolerated dose (MTD) ([1]; in combination with PLD 30 mg/m^2, every 21 days, ET-743 i.v. over 3 hours): 1.1 mg/m^2
- recommended dose of the combination treatment ([1]; plus 30 mg/m^2 of PLD): 1.1 mg/m^2
- antineoplastic activity [2]: potent antineoplastic activity
- AUC∞ [3, 17]: 39 ng·h/mL
- Cl [3, 17]: 23 l/h/m2
- Cmax [3, 17]: 6 ng/mL
- T1/2 [3, 17]: 93 h
- AUC∞ [3, 18]: 42 ng·h/mL
- Cl [3, 18]: 26 l/h/m2
- Cmax [3, 18]: 6 ng/mL
- T1/2 [3, 18]: 65 h
- AUC∞ [3, 19]: 31 ng·h/mL
- Cl [3, 19]: 44 l/h/m2
- Cmax [3, 19]: 7 ng/mL
- T1/2 [3, 19]: 47 h
- Impact of concomitant PLD on the pharmacokinetics of trabectedin [3]: does not have an impact
- Impact of concomitant PLD on the pharmacokinetics of trabectedin ([3]; listed as trabectidin): overtly not impacted
- side effects [4]: myelotoxic and hepatotoxic side effects
- acute toxicity finding [5]: liver toxicity as an important side effect
- Best Overall Response: PR (patients, tumour type) [6, 10]: 1 Sarcoma
- Treatment termination, subjects: Disease Progression [6, 10]: 2
- Best Overall Response: PR (patients, tumour type) [6, 11]: 0
- Treatment termination, subjects: Disease Progression [6, 11]: 1
- Best Overall Response: PR (patients, tumour type) [6, 12]: 0
- Treatment termination, subjects: Disease Progression [6, 12]: 2
- Best Overall Response: SD (patients, tumour type) [6, 12]: 1 Thyroid
- Best Overall Response: PR (patients, tumour type) [6, 13]: 0
- Treatment termination, subjects: Disease Progression [6, 13]: 3
- Best Overall Response: SD (patients, tumour type) [6, 13]: 0
- Best Overall Response: PR (patients, tumour type) [6, 14]: 1 Sarcoma
- Treatment termination, subjects: Disease Progression [6, 14]: 5
- Treatment termination, subjects: Disease Progression [6, 15]: 2
- Clinical benefit (measurable responses) ([6]; ET-743 together with PLD, soft tissue sarcoma, ovarian and head and neck cancer): measurable responses demonstrated evidence of clinical benefit
- Treatment termination, subjects: Disease Progression [6, 16]: 15
- clinical responses [7]: promising responses were observed
- ET-743 dose that could be supported in dose escalation [8]: 0.7 mg/m^2

Compound: C[C@@H]1C[C@H]2[C@@H]3CCC4=CC(=O)C=C[C@]4(C)[C@@]3(F)[C@@H](O)C[C@]2(C)[C@@]1(O)C(=O)CO [dexamethasone]
- effect of pretreatment on ET-743 hepatotoxicity [9]: abrogate ET-743-mediated hepatotoxicity
